Experimental data taken from US8765803B1, “Rab7 GTPase inhibitors and related methods of treatment” (STC.UNM, priority 2011, dated 2014).
Converted amounts (≈) assume the structure as drawn. “And” between values parts separate entries of the source, which are not always exact repeats. Identical values can stand only once. Like-named read-outs stand apart in the source and are kept apart here.

How the values were obtained:
[1] = system: Ras-related GTPases (Cdc42 wt, Rac1wt, Rac1Q61L, Rab2 wt, Rab7 wt, and H-Ras wt); conditions: for Activity for all GTPases tested: multiplex GTPase screen; for Loss in potency across GTPases relative to CID1067700: compared across multiple/all GTPases
Protocol: The eight GTPases were grouped into two sets: Rab7, H-Ras wild type and its V12 mutant, and Cdc42 and its L61 mutant were assayed in a buffer containing 1 mM EDTA, while Rho, Rac1 and its L61 mutant, and Cdc42 and its L61 mutant were assayed in the same buffer but instead containing 1 mM Mg^2+ with Cdc42 and its mutant being tested in both buffers. Besides 1 mM EDTA or 1 mM Mg^2+, the buffer contained 30 mM HEPES, pH 7.5, 40 mM KCl, 100 mM NaCl, 0.1% (v/v) NP-40 and 1% BSA. For each multiplex reaction, an extra set of beads was included to serve as scavengers to bind any proteins that dissociate from their assigned bead set and thereby reduce interference due to protein dissociation during the assay. […] Briefly, each individual GST-tagged enzyme was incubated with 4 μm glutathione-coated microsphere beads overnight with gentle rotation. The microsphere beads have different red fluorescence dyes incorporated and therefore could be separated by a flow cytometer. The unbound enzyme was removed by sufficient washing with the buffer. The bead sets were then combined and dispensed to 384-well plates at 5 μL/well. For one plate, 0.5 μg each of the enzymes and 4.0×10^4 of each bead were used. Then 100 nL compound was added using Biomek FX followed by the addition of 5 μL/well of BODIPY-FL-GTP (ribose-linked BODIPY). […] The beads were aspirated and delivered with the HyperCyt® instrument and read on CyAnADP flow cytometer. Forward scatter and side scatter was used to define the whole bead population. […] The data was analyzed by the HyperView® software developed by Dr. Bruce Edward at the University of New Mexico.
Briefly, six sets of beads (each with a unique red fluorescence intensity) were individually coated with six representative GST-tagged Ras-related GTPases (Cdc42 wt, Rac1wt, Rac1Q61L, Rab2 wt, Rab7 wt, and H-Ras wt) (FIG. 29A). The individually conjugated beads were then assayed in the presence of individual compounds in the Molecular Libraries Small Molecule Repository using a HyperCyt flow cytometry to identify molecules that altered the binding of fluorescent nucleotide to Ras-family GTPases (36).

[2] = system: U937 cells; assay: Cytotoxicity of compounds, cell density and viability; format: cell-based; conditions: 24 h
Protocol: U937 cells were grown to a density of 0.4×10^6 cells/mL Compounds were added to a final concentration of 20 μM or otherwise indicated. As a control, cells were treated with DMSO of the same volume. After 24 h incubation, the density and viability of the cells were measured with Countess Cell Counter according to the protocols from the manufacturer.

[3] = target: T1, Rab7 GTPase (UniProt P18067); assay: Multiplex bead-based flow cytometry dose-response, BODIPY-FL-GTP binding to GST-tagged GTPase; conditions: for EC50: mean of n replicates; for % Res: percent response
T1 construct: fused on or other part: GST tag, used to hold the protein on glutathione beads

[4] = Solubility in PBS and assay media, UV absorbance detection; format: physicochemical
Protocol: Solubility was measured in phosphate buffered saline (PBS) at room temperature (23° C.). PBS by definition is 137 mM NaCl, 2.7 mM KCl, 10 mM sodium phosphate dibasic, 2 mM potassium phosphate monobasic and a pH of 7.4. Detection was based on UV absorbance. […]. Solubility was also assessed in the each of the four media used in the individual assays. […]

[5] = target: Rab7 wt; conditions: previously determined (ref 33); read-out: Equilibrium dissociation constant Kd for wild-type Rab7; cited from earlier work
[6] = Assay format EDTA (1 mM EDTA buffer, 100 nM BODIPY-FL-GTP)
[7] = Assay format Mg (1 mM Mg2+ buffer, 1 nM BODIPY-FL-GTP)
[8] = 23 °C, pH 7.4, aqueous buffer, Solubility
[9] = pH 7.5, aqueous with cosolvent or surfactant or cyclodextrin, Solubility

Row | EC50 [3, 6] [nM] | % Res ([3]; Assay format EDTA) [%] | EC50 [3, 7] [nM] | % Res ([3]; Assay format Mg) [%] | Compound | other results
1 |  |  |  |  | CC1(C)Cc2c(sc(NC(=O)Cc3ccccc3)c2C(=O)O)CO1 [CID740871, 5,5-dimethyl-2-(2-phenylacetamido)-5,7-dihydro-4H-thieno[2,3-c]pyran-3-carboxylic acid] | Activity for all GTPases tested [1]: complete loss of activity; Activity for all GTPases tested ([1]; listed as SID 9938117): inactive
2 |  |  |  |  | COC(=O)c1c(NC(=S)NC(=O)c2ccccc2)sc2c1CC(C)(C)OC2 [CID1251121, Methyl 2-(3-benzoylthioureido)-5,5-dimethyl-5,7-dihydro-4H-thieno[2,3-c]pyran-3-carboxylate] | Activity for all GTPases tested [1]: complete loss of activity
3 |  |  |  |  | CC1(C)Cc2c(sc(NC(=S)Nc3ccccc3)c2C(=O)O)CO1 [CID1280844, 5,5-dimethyl-2-(3-phenylthioureido)-5,7-dihydro-4H-thieno[2,3-c]pyran-3-carboxylic acid] | Activity for all GTPases tested [1]: inactive
4 |  |  |  |  | CC1Cc2c(sc(NC(=S)NC(=O)c3ccccc3)c2C(=O)O)CO1 (stereo not shown) [CID46916263, 2-(3-benzoylthioureido)-5-methyl-5,7-dihydro-4H-thieno[2,3-c]pyran-3-carboxylic acid] | Cell viability of U937 cells after treatment ([2]; 100 μM): 94% (100 μM)
5 |  |  |  |  | CC1(C)Cc2c(sc(NC(=O)NC(=O)c3ccccc3)c2C(=O)O)CO1 [CID46916265, 2-(3-Benzoylureido)-5,5-dimethyl-5,7-dihydro-4H-thieno[2,3-c]pyran-3-carboxylic acid] | Cell viability of U937 cells after treatment ([2]; 100 μM): 98% (100 μM); Loss in potency across GTPases relative to CID1067700 [1]: 35 fold; Loss in potency across GTPases relative to CID1067700 ([1]; listed as SID 99381130): 7 fold
6 |  |  |  |  | O=C(NC(=S)Nc1sc2c(c1C(=O)O)CCOC2)c1ccccc1 [CID46916266, 2-(3-benzoylthioureido)-5,7-dihydro-4H-thieno[2,3-c]pyran-3-carboxylic acid] | Cell viability of U937 cells after treatment ([2]; 100 μM): 92% (100 μM)
7 | 320 ± 90 | 90 ± 6 | 290 ± 190 | 39 ± 3 | CC1(C)Cc2c(sc(NC(=S)NC(=O)c3cccc(F)c3)c2C(=O)O)CO1 [CID53301930] | Cell viability of U937 cells after treatment ([2]; 20 μM): 92%
8 | 430 ± 680 | 86 ± 10 | 650 ± 870 | 35 ± 4 | CC1(C)Cc2c(sc(NC(=S)NC(=O)c3ccccc3Br)c2C(=O)O)CO1 [CID53301931, 2-(3-(2-Bromobenzoyl)thioureido)-5,5-dimethyl-5,7-dihydro-4H-thieno[2,3-c]pyran-3-carboxylic acid] | Cell viability of U937 cells after treatment ([2]; 20 μM): 94%; solubility [4]: >93 μg/mL,; solubility [4, 8]: > 93 µg/mL and > 198 µM; solubility ([4]; pH 7.5): >93 μg/mL,; solubility ([4]; pH 7.5, read-out: Solubility): >198 µM; solubility ([4]; read-out: Solubility): >198 µM
9 | 140 ± 70 | 94 ± 14 | 140 ± 110 | 54 ± 2 | COc1ccc(C(=O)NC(=S)Nc2sc3c(c2C(=O)O)CC(C)(C)OC3)cc1 [CID53301932, 2-(3-(4-Methoxybenzoyl)thioureido)-5,5-dimethyl-5,7-dihydro-4H-thieno[2,3-c]pyran-3-carboxylic acid] | Cell viability of U937 cells after treatment ([2]; 20 μM): 96%
10 | 300 ± 180 | 93 ± 6 | 270 ± 220 | 41 ± 6 | CC1(C)Cc2c(sc(NC(=S)NC(=O)c3ccc(Br)cc3)c2C(=O)O)CO1 [CID53301933] | Cell viability of U937 cells after treatment ([2]; 20 μM): 93%
11 | 150 ± 130 | 68 ± 25 | 320 | 37 | COc1cccc(C(=O)NC(=S)Nc2sc3c(c2C(=O)O)CC(C)(C)OC3)c1 [CID53301934, 2-(3-(3-Methoxybenzoyl)thioureido)-5,5-dimethyl-5,7-dihydro-4H-thieno[2,3-c]pyran-3-carboxylic acid] | Cell viability of U937 cells after treatment ([2]; 20 μM): 94%; solubility [4]: 54.5 μg/mL,; solubility [4, 8]: 36.5 µg/mL and 86.8 µM; solubility ([4]; pH 7.5): 29.7 μg/mL,; solubility [4, 9]: 33.8 µg/mL and 80.4 µM; solubility ([4]; pH 7.5, read-out: Solubility): 70.6 µM (≈ 29.7 µg/mL); solubility ([4]; read-out: Solubility): 129.6 µM (≈ 54.5 µg/mL)
12 | 140 ± 160 | 97 ± 15 | 170 ± 210 | 45 ± 2 | CC1(C)Cc2c(sc(NC(=S)NC(=O)c3ccccc3F)c2C(=O)O)CO1 [CID53301935, 2-(3-(2-fluorobenzoyl)thioureido)-5,5-dimethyl-5,7-dihydro-4H-thieno[2,3-c]pyran-3-carboxylic acid] | Cell viability of U937 cells after treatment ([2]; 20 μM): 96%
13 | 2510 ± 2100 | 41 ± 0 | > 100000 |  | CC1(C)Cc2c(sc(NC(=S)NC(=O)c3cccc(Br)c3)c2C(=O)O)CO1 [CID53301936] | 
14 | 66 ± 20 | 97 ± 5 | 63 ± 10 | 53 ± 1 | CC1(C)CCc2sc(NC(=S)NC(=O)c3ccccc3)c(C(=O)O)c2C1 [CID53301937] | Cell viability of U937 cells after treatment ([2]; 20 μM): 91%
15 | 140 | 102 | 97 | 40 | Cc1ccc(C(=O)NC(=S)Nc2sc3c(c2C(=O)O)CC(C)(C)OC3)cc1 [CID53377395] | 
16 | 810 | 89 | 460 | 39 | CC1(C)Cc2c(sc(NC(=S)NC(=O)C3CCCCC3)c2C(=O)O)CO1 [CID53377396] | 
17 | 1120 | 52 |  |  | COc1ccccc1C(=O)NC(=S)Nc1sc2c(c1C(=O)O)CC(C)(C)OC2 [CID53377397] | 
18 | 25 | 103 | 25 | 56 | CC1(C)Cc2c(sc(NC(=S)NC(=O)c3cccs3)c2C(=O)O)CO1 [CID53377398] | 
19 | 470 | 18 | 220 | 47 | CC(C)(C)C1Cc2c(sc(NC(=S)NC(=O)c3ccccc3)c2C(=O)O)CO1 (stereo not shown) [CID53377399] | 
20 | 1160 | 93 | 360 | 30 | Cc1cccc(C(=O)NC(=S)Nc2sc3c(c2C(=O)O)CC(C)(C)OC3)c1 [CID53377400] | 
21 | 37 | 109 | 35 | 43 | CCC1(C)Cc2c(sc(NC(=S)NC(=O)c3ccccc3)c2C(=O)O)CO1 (stereo not shown) [CID53377401] | 
22 | 74 | 105 | 82 | 63 | CC1(C)Cc2c(sc(NC(=S)NC(=O)c3ccco3)c2C(=O)O)CO1 [CID53377402] | 
23 | 35 | 72 | 33 | 56 | O=C(NC(=S)Nc1sc2c(c1C(=O)O)CC1(CCCC1)OC2)c1ccccc1 [CID53377403] | 
24 | 410 | 95 | 520 | 47 | Cc1ccccc1C(=O)NC(=S)Nc1sc2c(c1C(=O)O)CC(C)(C)OC2 [CID53377404] | 
25 | 95 | 100 | 77 | 39 | CC1(C)Cc2c(sc(NC(=S)NC(=O)c3ccc(F)cc3)c2C(=O)O)CO1 [CID53377405, 2-(3-(4-Fluorobenzoyl)thioureido)-5,5-dimethyl-5,7-dihydro-4H-thieno[2,3-c]pyran-3-carboxylic acid] | Cell viability of U937 cells after treatment ([2]; 20 μM): 94%; solubility [4]: 67.6 μg/mL,; solubility [4, 8]: 85.7 µg/mL and 210 µM; solubility ([4]; pH 7.5): 69.1 μg/mL,; solubility [4, 9]: 98.2 µg/mL and 240 µM; solubility ([4]; pH 7.5, read-out: Solubility): 169.2 µM (≈ 69.1 µg/mL); solubility ([4]; read-out: Solubility): 165.5 µM (≈ 67.6 µg/mL)
26 |  |  |  |  | BODIPY FL GDP 2′-(or -3′)-O—[N-(2-aminoethyl)urethane] [BODIPY-GDP] | Kd [5]: 40 nM
27 |  |  |  |  | BODIPY FL GTP 2′-(or 3′)-O—[N-(2-aminoethyl)urethane] [BODIPY-GTP] | Kd [5]: 100 nM
